Test results from ChEMBL document CHEMBL1145551, “Further pterocellins from the New Zealand marine bryozoan Pterocella vesiculosa” (J Nat Prod, 2008).
Values after ≈ are worked out from the molar mass of the structure shown. Active and inactive are the calls of the source. The calls are words filed in the database; no cut-off is given here.

Columns and labels:
[1] = test system: P388; assay: Cytotoxicity against mouse P388 ATCC CCL 46 cells; format: functional, cell-based
[2] = test system: Amorphotheca resinae; assay: Antifungal activity against Cladosporium resinae; format: functional, organism-based
[3] = test system: Human alphaherpesvirus 1; assay: Antiviral activity against HSV1 F ATCC VR 733 in african green monkey BSC1 cells; format: functional, organism-based; conditions: BSC-1
[4] = test system: Poliovirus 1; assay: Antiviral activity against PV1 in african green monkey BSC1 cells; format: functional, organism-based; conditions: BSC-1
[5] = Cytotoxicity against african green monkey BSC1 cells at 40 ug/disc; format: cell-based; conditions: chlorocebus aethiops, bsc-1
[6] = test system: Escherichia coli; assay: Antibacterial activity against Escherichia coli; format: functional, organism-based
[7] = test system: Bacillus subtilis; assay: Antibacterial activity against Bacillus subtilis; format: functional
[8] = test system: Pseudomonas aeruginosa; assay: Antibacterial activity against Pseudomonas aeruginosa; format: functional, organism-based
[9] = test system: Candida albicans; assay: Antifungal activity against Candida albicans; format: functional, organism-based
[10] = test system: Trichophyton mentagrophytes; assay: Antifungal activity against Trichophyton mentagrophytes; format: functional, organism-based

SMILES | IC50 [1] | Activity [2] | Activity [3] | Activity [4] | Activity [5] | Activity [6] | MIC [7] | Activity [8] | Activity [9] | Activity [10]
COc1cn2c(cc1=O)C(=O)c1ccnc(CC(C)C)c1-2 [PTEROCELLIN A] | 0.477 µg/mL (≈ 1.68 µM) | – | – | – | – | – | – | – | – | –
COc1cn2c(c(-c3c4n(cc(OC)c3=O)-c3c(ccnc3CC(C)C)C4=O)c1=O)C(=O)c1ccnc(CC(C)C)c1-2 [PTEROCELLIN E] | > 6.25 µg/mL | inactive | inactive | inactive | Non-toxic | inactive | 1 µg | inactive | inactive | inactive
COc1cn2c(c(Cc3c4n(cc(OC)c3=O)-c3c(ccnc3CC(C)C)C4=O)c1=O)C(=O)c1ccnc(CC(C)C)c1-2 [PTEROCELLIN F] | > 6.25 µg/mL | inactive | inactive | inactive | Non-toxic | inactive | 1 µg | inactive | inactive | inactive
COc1cn2c(c(C(C)C)c1=O)C(=O)c1ccnc(CC(C)C)c1-2 [PTEROCELLIN D] | 4.77 µg/mL (≈ 14.6 µM) | inactive | – | – | – | – | 0.5 µg | inactive | inactive | –
COc1cn2c(c(CCCCC(C)=O)c1=O)C(=O)c1ccnc(CC(C)C)c1-2 [PTEROCELLIN C] | > 6.25 µg/mL | inactive | inactive | inactive | Non-toxic | inactive | 0.2 µg | inactive | inactive | inactive
COc1cn2c(cc1=O)C(=O)c1ccnc(Cc3ccccc3)c1-2 [PTEROCELLIN B] | 0.323 µg/mL (≈ 1.01 µM) | – | – | – | – | – | – | – | – | –
